Among the test systems are IGROV-1; LOX IMVI; CCRF-CEM; HL-60; SF-539; SF-268; OVCAR-5; HCC 2998; EKVX; K562; SNB-19; TK-10; ACHN; DMS-273; KM12; NCI-H522; Malme-3M.
What all share (experiment): NCI-60 cell line screen, 48 h

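Exposure lasted 48 hours, with cells grown in 96-well plates and compounds tested at five concentrations. GI50 is the concentration that inhibits growth by half.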 Activity calls are given as the source filed them. No stated cut-off is given here; in the data, active = GI50 up to about 1.1 µM and inactive = higher.

Regarding `COc1ccc(-c2oc3c(OC)c(OC)c(OC)c(O)c3c(=O)c2OC)cc1O`, the GI50 in the experiment on IGROV-1 is 0.462 µM (active); in the experiment on LOX IMVI, 0.0935 µM (active); in the experiment on CCRF-CEM it was 0.0135 µM (active); with HL-60, < 0.01 µM (active); with SF-539, 0.0327 µM (active); in the experiment with SF-268, 0.0859 µM (active). The GI50 with OVCAR-5 is 5.4 µM (inactive); with HCC 2998 it was 2.11 µM (inactive); with EKVX, 0.836 µM (active); in the experiment with K562, < 0.01 µM (active); in the experiment with SNB-19 it was 0.347 µM (active); in the experiment on TK-10, 2.42 µM (inactive). The GI50 in the experiment on ACHN is 0.0656 µM (active); in the experiment with DMS-273 it was < 0.01 µM (active); in the experiment with KM12, 0.556 µM (active); in the experiment on NCI-H522 it was < 0.01 µM (active); in the experiment on Malme-3M, 0.065 µM (active).

On to `CC1=C(/C=C/C2=CC(=C\C(=O)O)/CC(C3=C(C)CCCC3(C)C)C2)C(C)(C)CCC1` (stereo not given), for which the GI50 with IGROV-1 is 13.2 µM (inactive); in the experiment with LOX IMVI, 13.7 µM (inactive); with SF-539, 16.8 µM (inactive); in the experiment on SF-268, 20.9 µM (inactive); in the experiment on OVCAR-5, 16.4 µM (inactive); in the experiment on EKVX, 11.3 µM (inactive). In addition, the GI50 in the experiment with SNB-19 was 14.3 µM (inactive); in the experiment with TK-10, 13.5 µM (inactive); in the experiment with ACHN it was 10.4 µM (inactive); in the experiment with DMS-273, 13.9 µM (inactive); with KM12, 11.9 µM (inactive); with NCI-H522 it was 10.6 µM (inactive). Besides, the GI50 with Malme-3M was 18.7 µM (inactive).

As for `Oc1ccncc1-c1cnccc1O`, the GI50 in the experiment with IGROV-1, in the experiment with LOX IMVI, in the experiment on CCRF-CEM, in the experiment on HL-60, in the experiment with SF-539 and in the experiment with HCC 2998 was > 100 µM (inactive) throughout. In addition, the GI50 in the experiment with EKVX, with K562, in the experiment on TK-10, in the experiment with ACHN, with DMS-273 and in the experiment on KM12 was > 100 µM (inactive) in each case. Further, the GI50 with NCI-H522 and in the experiment with Malme-3M was > 100 µM (inactive) each time.

`C=C(COC(C)=O)CC(OC(C)=O)c1ccccc1` (stereo not given): the GI50 with IGROV-1 was > 100 µM (inactive); with LOX IMVI it was > 100 µM (inactive); in the experiment with CCRF-CEM, 68.4 µM (inactive); in the experiment on HL-60, > 100 µM (inactive); in the experiment with SF-539, > 100 µM (inactive); with SF-268, > 100 µM (inactive). The GI50 with OVCAR-5, in the experiment on HCC 2998, with EKVX, in the experiment on K562, in the experiment on SNB-19 and in the experiment on TK-10 was > 100 µM (inactive) throughout. Besides, the GI50 in the experiment with ACHN, in the experiment with DMS-273, with KM12 and in the experiment with NCI-H522 was > 100 µM (inactive) each time.

As for `CCOC(=O)/C(=C/c1cc(OC)ccc1OC)CC(=O)O`, the GI50 in the experiment on IGROV-1 is > 100 µM (inactive); with LOX IMVI, > 100 µM (inactive); in the experiment on CCRF-CEM, > 31.6 µM (inactive); with HL-60, > 31.6 µM (inactive); with SF-539, > 100 µM (inactive); in the experiment on SF-268 it was > 100 µM (inactive). Further, the GI50 in the experiment on HCC 2998 is > 31.6 µM (inactive); with EKVX it was > 100 µM (inactive); with K562, > 31.6 µM (inactive); with SNB-19, > 100 µM (inactive); in the experiment on TK-10, > 100 µM (inactive); in the experiment with ACHN it was > 100 µM (inactive). In addition, the GI50 with DMS-273 is > 100 µM (inactive); in the experiment on KM12, > 100 µM (inactive); in the experiment on NCI-H522 it was > 100 µM (inactive); with Malme-3M it was > 31.6 µM (inactive).

Take `O=C1NC2(CCCC2)C2CCCCC12O` (stereo not given): the GI50 in the experiment with IGROV-1, in the experiment with LOX IMVI, in the experiment with CCRF-CEM, with HL-60, in the experiment with SF-539 and with SF-268 was > 100 µM (inactive) each time. Also, the GI50 in the experiment with OVCAR-5, in the experiment on EKVX, in the experiment on K562, in the experiment on SNB-19, with TK-10 and in the experiment on ACHN was > 100 µM (inactive) in each case. Besides, the GI50 with DMS-273, in the experiment on KM12, in the experiment with NCI-H522 and in the experiment with Malme-3M was > 100 µM (inactive) in each case.

With `N#CC(=C1C=CC(=NO)C=C1)c1ccc(Cl)cc1`, the GI50 is 17.1 µM (inactive) in the experiment on IGROV-1; 3.22 µM (inactive) in the experiment on LOX IMVI; 2.69 µM (inactive) with CCRF-CEM; 2.36 µM (inactive) in the experiment with HL-60; 7.33 µM (inactive) in the experiment with SF-539; 11.9 µM (inactive) with SF-268. Besides, the GI50 is 11.9 µM (inactive) in the experiment on OVCAR-5; 17.5 µM (inactive) in the experiment with HCC 2998; 3.78 µM (inactive) in the experiment with K562; 42.4 µM (inactive) in the experiment on SNB-19; 24.7 µM (inactive) in the experiment with TK-10; 10.6 µM (inactive) in the experiment with ACHN. For the same compound, the GI50 with DMS-273 was 6.58 µM (inactive); in the experiment on KM12 it was 1.69 µM (inactive); in the experiment on NCI-H522, 2.47 µM (inactive); in the experiment with Malme-3M it was 21.8 µM (inactive).

For `Cc1ccc(S(=O)(=O)N(/N=C(\N)Oc2ccc(Cl)cc2)C(=N)Oc2ccc(Cl)cc2)cc1`, the GI50 with IGROV-1, with LOX IMVI, with CCRF-CEM, in the experiment with HL-60, with SF-539 and in the experiment on SF-268 was > 100 µM (inactive) in each case. Moreover, the GI50 in the experiment with OVCAR-5, with HCC 2998, in the experiment with EKVX, with K562, in the experiment with SNB-19 and in the experiment with TK-10 was > 100 µM (inactive) throughout. Also, the GI50 in the experiment on ACHN, in the experiment on DMS-273, in the experiment with KM12, in the experiment on NCI-H522 and in the experiment on Malme-3M was > 100 µM (inactive) each time.

Consider `C#CCN(Cc1ccc2nc(-c3ccccc3)c(N)nc2c1)c1cc(OC)c(OC)c(OC)c1`, for which the GI50 with IGROV-1 was 37.1 µM (inactive); in the experiment with LOX IMVI, 25.2 µM (inactive); in the experiment on CCRF-CEM, 17.9 µM (inactive); in the experiment on HL-60 it was 17.9 µM (inactive); in the experiment with SF-539 it was 36.6 µM (inactive); with SF-268, 40.7 µM (inactive). The GI50 in the experiment on OVCAR-5 was 48.5 µM (inactive); in the experiment with HCC 2998 it was 57.4 µM (inactive); in the experiment on EKVX, 31.2 µM (inactive); in the experiment with K562, 23.8 µM (inactive); in the experiment with SNB-19 it was 40.5 µM (inactive); in the experiment on TK-10, 46.1 µM (inactive). Further, the GI50 with ACHN was 22.8 µM (inactive); in the experiment on DMS-273, 22.1 µM (inactive); in the experiment with KM12, > 10 µM (inactive); in the experiment with NCI-H522, 20.9 µM (inactive); in the experiment on Malme-3M it was 26.9 µM (inactive).

For `Cc1ccc(S(=O)(=O)c2ccc(C)cc2[N+](=O)[O-])c([N+](=O)[O-])c1`, the GI50 with IGROV-1, in the experiment with LOX IMVI, in the experiment with CCRF-CEM, with SF-539, in the experiment on SF-268 and in the experiment with OVCAR-5 was > 100 µM (inactive) throughout. Besides, the GI50 was > 100 µM (inactive) in the experiment on HCC 2998; > 100 µM (inactive) in the experiment with EKVX; > 100 µM (inactive) in the experiment with K562; > 100 µM (inactive) with SNB-19; > 100 µM (inactive) with TK-10; 44.9 µM (inactive) with ACHN. Besides, the GI50 in the experiment on DMS-273, with KM12, in the experiment with NCI-H522 and in the experiment on Malme-3M was > 100 µM (inactive) throughout.

`O=C1NC(=S)NC(=O)C1=Cc1ccc([N+](=O)[O-])o1`: the GI50 in the experiment with IGROV-1 is 21.6 µM (inactive); in the experiment with LOX IMVI, 17.6 µM (inactive); with CCRF-CEM it was 23.9 µM (inactive); with HL-60 it was 27.1 µM (inactive); in the experiment with SF-539, 22.9 µM (inactive); in the experiment on SF-268, 39.8 µM (inactive). The GI50 with OVCAR-5 was 20.3 µM (inactive); with HCC 2998 it was 60.7 µM (inactive); in the experiment with EKVX, 21.1 µM (inactive); in the experiment with K562, 23.9 µM (inactive); with SNB-19 it was > 100 µM (inactive); in the experiment with TK-10, 61 µM (inactive). Besides, the GI50 in the experiment with ACHN is 18.4 µM (inactive); in the experiment on DMS-273 it was 18.9 µM (inactive); in the experiment on KM12, 46.6 µM (inactive); in the experiment on NCI-H522, 19.9 µM (inactive); with Malme-3M, 14.7 µM (inactive).

As for `CC1(C)CC(N2CCN(C3CC(C)(C)NC(C)(C)C3)CC2)CC(C)(C)N1`, the GI50 with IGROV-1, in the experiment on LOX IMVI, in the experiment on CCRF-CEM, in the experiment on HL-60, in the experiment on SF-539 and with SF-268 was > 100 µM (inactive) in each case. Besides, the GI50 in the experiment on OVCAR-5, in the experiment on HCC 2998, with EKVX, in the experiment on K562, in the experiment on SNB-19 and in the experiment on TK-10 was > 100 µM (inactive) each time. The GI50 in the experiment with ACHN, with DMS-273, in the experiment on KM12 and in the experiment with NCI-H522 was > 100 µM (inactive) in each case.

`C/C(=C\Cc1cc(O)ccc1O)CCc1c(C)cc(O)c(C=O)c1C` [PANICEIN B3]: the GI50 in the experiment on IGROV-1 is 23.2 µM (inactive); in the experiment with HL-60, 34.6 µM (inactive); in the experiment on SF-539, 18.5 µM (inactive); with SF-268 it was 15.8 µM (inactive); with HCC 2998, 43.2 µM (inactive); with EKVX, 31.1 µM (inactive). For the same compound, the GI50 is > 100 µM (inactive) with K562; 44.5 µM (inactive) in the experiment with SNB-19; 34.8 µM (inactive) in the experiment on TK-10; 17.5 µM (inactive) in the experiment on ACHN; 20.6 µM (inactive) with DMS-273; 32.3 µM (inactive) in the experiment with KM12. Also, the GI50 with NCI-H522 is 10.1 µM (inactive); in the experiment with Malme-3M, 21.3 µM (inactive).

(Values after ChEMBL document CHEMBL1201862, “PubChem BioAssay data set” (2004).)
